Entries after “also recorded” stand apart in the source; their conditions may differ.
Tests used:
infarcted myocardium [1] = assay: R1 mapping (inversion recovery MRI) 24 h and 48 h after PCA in canine reperfused myocardial infarction; format: in vivo, dog; settings: for Average R1r (R1 in remote regions) / Average ΔR1r (ΔR1 in remote regions): remote myocardium
Source text: In FIG. 2, multislice voxel-by-voxel R1 maps (A) and PIMs (B), generated from such images, are shown. The good quality and coregistration of images acquired with varying TI, was confirmed by the R^2 values obtained for the pixel-by-pixel curve-fitting applied to the SI vs. TI dependence. Average R^2 in the myocardium was 0.99±0.005.
Average R10 was 0.98±0.05 s^−1, in agreement with other investigators' findings. […] This proves Gd(ABE-DTTA) to be a PCA suitable for multi-T1 R1 mapping.
In the canine model used in the present disclosure, the myocardial infarct was generated by prolonged proximal occlusion of the Left Anterior Descending coronary artery, using an intracoronary balloon catheter. Animals were anesthetized and mechanically ventilated during MRI sessions (using isoflurane).
A 1.5 Tesla GE Signa Horizon “Cardiac CV” instrument was used for cardiac MRI. Images were generated in standard consecutive short-axis planes (6 slices covering the entire LV) and one additional three-chamber long-axis view to assess the apex (left ventricular outflow tract view).
A 180°-prepared, segmented, fast gradient-echo sequence, was used to determine R1 values of the myocardium using the inversion recovery method. Short axis and long axis images were generated using the following parameters: FOV 300 mm, image matrix 256×256, slice thickness 10 mm, read out flip angle 25°, echo time (TE) 3.32 ms, repetition time (TRp) 7.18 ms, and recycle time (TR) 1200-2000 ms (three R-R intervals, depending on heart rate, but constant throughout an entire given R1 mapping procedure). Inversion times (TI) in the range of 200-1200 ms were used. In theory, 6 different TIs should be sufficient to generate a R1 map. In this disclosure, however, 8-10 TIs were used to ensure accuracy of R1 determination. The R1 values were calculated from the SI vs. TI dependence, applying a three-parameter least-squares curve fitting routine, using the following formula: […]
Since all MRI parameters below reflect the entire volume element in the slice, associated with a given pixel, from this point on the term voxel, rather than pixel, will be used.). The relaxation rate R1 (R1≡1/T1) of each voxel was composed of R10, the myocardial R1 observed in the absence of both infarct and PCA, and ΔR1, the contribution of the PCA present in the voxel:
Using Eq. 2, the R1 map was transformed into a ΔR1 map. The average ΔR1r value of areas remote from the infarct zone (about 600 voxels), was considered representative of 0% infarction.
As a threshold, ΔR1v of all remote voxels where R1v<R1r+2SD, was set to zero.

infarcted myocardium [2] = assay: R1 mapping with SI0 map 20 minutes after Gd(DTPA) in dogs 48 h after reperfusion of myocardial infarction; format: in vivo, dog
Procedure: In three dogs (n=3), weighing 18-20 kg, myocardial infarctions (MI) were generated by a 180-minute closed-chest coronary artery occlusion. Forty-eight hours following reperfusion, baseline R10 map and SI0-map (see below) were generated using the inversion-recovery (IR) technique with multiple inversion times (TI) (FIG. 6). Delayed-Enhancement (DE) imaging was carried out exactly 15 minutes after Gd(DTPA) (0.2 mmol/kg) administration. Baseline parametric R10 maps, and corresponding SI0 maps, that cover the left ventricle (LV), in a dog 48 h after myocardial infarction, are shown in FIG. 6. R1 was calculated from the SI vs. TI dependence as detailed herein. The calculated baseline relaxation rate of myocardium was R10=1.03±0.05 s^−1, which was later used for calculating the PIM. For the purpose of generating PIMs, 20 minutes after the administration of Gd(DTPA), high resolution images of the entire heart were acquired with two TIs using the same image localizations and sequence parameters (except the TI) as for the baseline R10 and SI0 maps. Details of selecting the optimum TIs are discussed further below. From these images and from the corresponding SI0 maps, voxel-by-voxel R1 maps were generated. Average R1 values in remote myocardium and infarct core were R1=1.73±0.07 s^−1, and R1=3.22±0.09 s^−1, respectively. R1 in LV chamber blood was R1=2.53±0.05 s^−1. ΔR1 (ΔR1=R1−R10) was calculated automatically for each voxel utilizing the baseline R10 map. Average ΔR1r in the remote viable regions was 0.7±0.07 s^−1, while in the center of the infarct (denoted 100% infarcted) ΔR1c was 2.19±0.09 s^−1. The contribution of any contrast-agent-accumulating infarct islet contributes to the total ΔR1 of that voxel. Therefore, ΔR1 is proportional to the amount of non-viable tissue present in any given voxel. Thus, a percent infarct (PI) scale was created, where the core ΔR1c (maximum R1 enhancement observed in the center of the infarct) was considered 100% whereas the ΔR1r of remote areas was 0%. In the canine model used in the present disclosure, the myocardial infarct was generated by prolonged proximal occlusion of the Left Anterior Descending coronary artery, using an intracoronary balloon catheter. Animals were anesthetized and mechanically ventilated during MRI sessions (using isoflurane). A 1.5 Tesla GE Signa Horizon “Cardiac CV” instrument was used for cardiac MRI. Images were generated in standard consecutive short-axis planes (6 slices covering the entire LV) and one additional three-chamber long-axis view to assess the apex (left ventricular outflow tract view).

[3] = 20 minutes after Gd(DTPA) 0.2 mmol/kg
[4] = 20 minutes after Gd(DTPA), ΔR1=R1−R10

hourly change in R1 in all myocardial areas (infarcted myocardium [1]; between 24 and 48 hours post PCA) | rate of decay in the infarct (infarcted myocardium [1]; within the acquisition time frame of about 30-40 minutes) | Compound | Average R1c (R1 in infarct core) (infarcted myocardium [1]; 24 h after PCA) | Average ΔR1c (ΔR1 in infarct core) (infarcted myocardium [1]; 24 h after PCA) | Average R1r (R1 in remote regions) (infarcted myocardium [1]; 24 h after PCA) | Average ΔR1r (ΔR1 in remote regions) (infarcted myocardium [1]; 24 h after PCA) | Average R1c (R1 in infarct core) (infarcted myocardium [1]; 48 h after PCA) | Average ΔR1c (ΔR1 in infarct core) (infarcted myocardium [1]; 48 h after PCA) | Average R1r (R1 in remote regions) (infarcted myocardium [1]; 48 h after PCA) | Average ΔR1r (ΔR1 in remote regions) (infarcted myocardium [1]; 48 h after PCA) | persistence of ΔR1 / agent in the infarct (infarcted myocardium [1]; infarct region, after a single administration) | hourly change in R1 (infarcted myocardium [1]; viable tissue, between 24 and 48 hours post PCA, interpolated) | Average R1 in infarct core (infarcted myocardium [2]; [3]) | Average R1 in remote myocardium (infarcted myocardium [2]; [3]) | R1 in LV chamber blood (infarcted myocardium [2]; [3]) | Average ΔR1r in the remote viable regions (infarcted myocardium [2]; [4]) | ΔR1c in the center of the infarct (denoted 100% infarcted) (infarcted myocardium [2]; [4])
less than one percent of the measured R1 | less than 1 % of R1 | Gd(ABE-DTTA) | 2.33 ± 0.5 s⁻¹ | 1.21 ± 0.5 s⁻¹ | 1.23 ± 0.06 s⁻¹ | 0.26 ± 0.03 s⁻¹ | 2.31 ± 0.4 s⁻¹ | 1.27 ± 0.3 s⁻¹ | 1.15 ± 0.08 s⁻¹ | 0.18 ± 0.05 s⁻¹ | observable throughout the first week from administration; also recorded: still observable in the infarct region one week after administration | 0.26±0.1 percent/hour | – | – | – | – | –
– | – | O=C([O-])CN(CCN(CC(=O)[O-])CC(=O)O)CCN(CC(=O)[O-])CC(=O)O.[Gd+3] [Gd(DTPA)] | – | – | – | – | – | – | – | – | – | – | 3.22 ± 0.09 s⁻¹ | 1.73 ± 0.07 s⁻¹ | 2.53 ± 0.05 s⁻¹ | 0.7 ± 0.07 s⁻¹ | 2.19 ± 0.09 s⁻¹
